Tested on: Human patients with short bowel syndrome
Experiment: Example 2: liver biomarkers (albumin, gamma glutamyl transferase, total bilirubin, ALT, AST, ALP) in short bowel syndrome patients, every four weeks for 24 weeks
Format: in vivo
Settings: 0.05 mg/kg/d; for Gamma Glutamyl Transferase Observed Value, Mean / Gamma Glutamyl Transferase Observed Value, Median / ALKALINE PHOSPHATASE Change from Baseline, Median / ALT Change from Baseline, Mean / ALT Change from Baseline, Median / ALT Observed Value, Mean / ALT Observed Value, Median / AST Change from Baseline, Mean / AST Change from Baseline, Median / AST Observed Value, Mean / AST Observed Value, Median / Albumin Change from Baseline, Mean / Albumin Change from Baseline, Median / Albumin Observed Value, Mean / Albumin Observed Value, Median / Alkaline Phosphatase Change from Baseline, Mean / Alkaline Phosphatase Observed Value, Mean / Alkaline Phosphatase Observed Value, Median / Bilirubin Change from Baseline, Mean / Bilirubin Change from Baseline, Median / Bilirubin Observed Value, Mean / Bilirubin Observed Value, Median / Gamma Glutamyl Transferase Change from Baseline, Mean / Gamma Glutamyl Transferase Change from Baseline, Median: n=38; for ALT >10% decrease from Baseline, % of subjects / ALT >10% decrease from Baseline, n subjects / ALT >10% increase from Baseline, % of subjects / ALT >10% increase from Baseline, n subjects / ALT Within 10% of Baseline, % of subjects / ALT Within 10% of Baseline, n subjects / AST >10% decrease from Baseline, % of subjects / AST >10% decrease from Baseline, n subjects / AST >10% increase from Baseline, % of subjects / AST >10% increase from Baseline, n subjects / AST Within 10% of Baseline, % of subjects / AST Within 10% of Baseline, n subjects / Albumin >10% decrease from Baseline, % of subjects / Albumin >10% decrease from Baseline, n subjects / Albumin >10% increase from Baseline, n subjects / Albumin Within 10% of Baseline, % of subjects / Albumin Within 10% of Baseline, n subjects / Alkaline Phosphatase >10% decrease from Baseline, % of subjects / Alkaline Phosphatase >10% decrease from Baseline, n subjects / Alkaline Phosphatase >10% increase from Baseline, % of subjects / Alkaline Phosphatase >10% increase from Baseline, n subjects / Alkaline Phosphatase Within 10% of Baseline, % of subjects / Alkaline Phosphatase Within 10% of Baseline, n subjects / Bilirubin >10% decrease from Baseline, % of subjects / Bilirubin >10% decrease from Baseline, n subjects / Bilirubin >10% increase from Baseline, % of subjects / Bilirubin >10% increase from Baseline, n subjects / Bilirubin Within 10% of Baseline, % of subjects / Bilirubin Within 10% of Baseline, n subjects: m=38
Method: To further confirm the results of Example 1, a further study was conducted involving more individuals and additional diagnostic biomarkers. Human patients with short bowel syndrome were divided into two groups: a control group (43 total individuals) to receive placebo, and an experimental group (42 total individuals) to receive teduglutide at 0.05 mg/kg/day throughout the study. Patients were treated by subcutaneous injection of placebo or the appropriate dose of teduglutide. Known biomarkers of liver function were monitored every four weeks, for 24 weeks. The liver biomarkers tested included albumin, gamma glutamyl transferase, total bilirubin, ALT and AST and ALP. Before administration of placebo or teduglutide, diagnostic biomarker levels were tested to establish a baseline for each individual.
To determine the effect of GLP-2 on the levels of the diagnostic biomarkers, the average level of each biomarker was measured for the placebo and teduglutide treated groups for each visit. Furthermore, the average change from baseline was calculated using the established baseline values. For FIGS. 17-28, p-values were calculated using the t-test.
P values are provided, which were calculated for each distribution of biomarker changes for each week using the chi-squared test.

For CC[C@H](C)[C@H](NC(=O)[C@H](Cc1ccccc1)NC(=O)[C@H](CC(=O)O)NC(=O)[C@H](CCCNC(=N)N)NC(=O)[C@H](C)NC(=O)[C@H](C)NC(=O)[C@H](CC(C)C)NC(=O)[C@H](CC(N)=O)NC(=O)[C@H](CC(=O)O)NC(=O)[C@H](CC(C)C)NC(=O)[C@@H](NC(=O)[C@@H](NC(=O)[C@H](CC(N)=O)NC(=O)[C@H](CCSC)NC(=O)[C@H](CCC(=O)O)NC(=O)[C@H](CC(=O)O)NC(=O)[C@H](CO)NC(=O)[C@H](Cc1ccccc1)NC(=O)[C@H](CO)NC(=O)CNC(=O)[C@H](CC(=O)O)NC(=O)CNC(=O)[C@@H](N)Cc1c[nH]cn1)[C@@H](C)O)[C@@H](C)CC)C(=O)N[C@@H](CC(N)=O)C(=O)N[C@@H](Cc1c[nH]c2ccccc12)C(=O)N[C@@H](CC(C)C)C(=O)N[C@H](C(=O)N[C@@H](CCC(N)=O)C(=O)N[C@H](C(=O)N[C@@H](CCCCN)C(=O)N[C@H](C(=O)N[C@H](C(=O)N[C@@H](CC(=O)O)C(=O)O)[C@@H](C)O)[C@@H](C)CC)[C@@H](C)O)[C@@H](C)CC [teduglutide], the “Gamma Glutamyl Transferase Observed Value, Mean” value (Week 16) was 72.4 U/L, the “Gamma Glutamyl Transferase Observed Value, Median” value (Week 16) was 54 U/L and the “ALT >10% decrease from Baseline, % of subjects” value (Week 20) was “(60.5%)”. The “ALT >10% decrease from Baseline, n subjects” value (Week 20) was 23, the “ALT >10% increase from Baseline, % of subjects” value (Week 20) was “(13.2%)” and the “ALT >10% increase from Baseline, n subjects” value (Week 20) was 5. For the same compound, the “ALT Within 10% of Baseline, % of subjects” value (Week 20) was “(26.3%)”, the “ALT Within 10% of Baseline, n subjects” value (Week 20) was 10 and the “AST >10% decrease from Baseline, % of subjects” value (Week 20) was “(52.6%)”. For the same compound, the “AST >10% decrease from Baseline, n subjects” value (Week 20) was 20, the “AST >10% increase from Baseline, % of subjects” value (Week 20) was “(18.4%)” and the “AST >10% increase from Baseline, n subjects” value (Week 20) was 7. The “AST Within 10% of Baseline, % of subjects” value (Week 20) was “(28.9%)”, the “AST Within 10% of Baseline, n subjects” value (Week 20) was 11 and the “Albumin >10% decrease from Baseline, % of subjects” value (Week 20) was “(2.6%)”. The “Albumin >10% decrease from Baseline, n subjects” value (Week 20) was 1, the “Albumin >10% increase from Baseline, n subjects” value (Week 20) was 0 and the “Albumin Within 10% of Baseline, % of subjects” value (Week 20) was “(97.4%)”. The “Albumin Within 10% of Baseline, n subjects” value (Week 20) was 37, the “Alkaline Phosphatase >10% decrease from Baseline, % of subjects” value (Week 20) was “(60.5%)” and the “Alkaline Phosphatase >10% decrease from Baseline, n subjects” value (Week 20) was 23. For the same compound, the “Alkaline Phosphatase >10% increase from Baseline, % of subjects” value (Week 20) was “(7.9%)”, the “Alkaline Phosphatase >10% increase from Baseline, n subjects” value (Week 20) was 3 and the “Alkaline Phosphatase Within 10% of Baseline, % of subjects” value (Week 20) was “(31.6%)”. For the same compound, the “Alkaline Phosphatase Within 10% of Baseline, n subjects” value (Week 20) was 12, the “Bilirubin >10% decrease from Baseline, % of subjects” value (Week 20) was “(65.8%)” and the “Bilirubin >10% decrease from Baseline, n subjects” value (Week 20) was 25. The “Bilirubin >10% increase from Baseline, % of subjects” value (Week 20) was “(21.1%)”, the “Bilirubin >10% increase from Baseline, n subjects” value (Week 20) was 8 and the “Bilirubin Within 10% of Baseline, % of subjects” value (Week 20) was “(13.2%)”. The “Bilirubin Within 10% of Baseline, n subjects” value (Week 20) was 5, the “ALKALINE PHOSPHATASE Change from Baseline, Median” value (Week 20) was −25.5 U/L and the “ALT Change from Baseline, Mean” value (Week 20) was −10.3 U/L. The “ALT Change from Baseline, Median” value (Week 20) was −6.5 U/L, the “ALT Observed Value, Mean” value (Week 20) was 34.8 U/L and the “ALT Observed Value, Median” value (Week 20) was 28.5 U/L. The “AST Change from Baseline, Mean” value (Week 20) was −4.2 U/L, the “AST Change from Baseline, Median” value (Week 20) was −2.5 U/L and the “AST Observed Value, Mean” value (Week 20) was 28.4 U/L. For the same compound, the “AST Observed Value, Median” value (Week 20) was 24.5 U/L, the “Albumin Change from Baseline, Mean” value (Week 20) was -0.6 g/L and the “Albumin Change from Baseline, Median” value (Week 20) was -1 g/L. For the same compound, the “Albumin Observed Value, Mean” value (Week 20) was 41.8 g/L, the “Albumin Observed Value, Median” value (Week 20) was 43 g/L and the “Alkaline Phosphatase Change from Baseline, Mean” value (Week 20) was −28.6 U/L. For the same compound, the “Alkaline Phosphatase Observed Value, Mean” value (Week 20) was 109.8 U/L, the “Alkaline Phosphatase Observed Value, Median” value (Week 20) was 94.5 U/L and the “Bilirubin Change from Baseline, Mean” value (Week 20) was -2.76 µmol/L. The “Bilirubin Change from Baseline, Median” value (Week 20) was -1.7 µmol/L, the “Bilirubin Observed Value, Mean” value (Week 20) was 9.88 µmol/L and the “Bilirubin Observed Value, Median” value (Week 20) was 7.85 µmol/L. The “Gamma Glutamyl Transferase Change from Baseline, Mean” value (Week 20) was −9.6 U/L, the “Gamma Glutamyl Transferase Change from Baseline, Median” value (Week 20) was −8 U/L and the “Gamma Glutamyl Transferase Observed Value, Mean” value (Week 20) was 70.1 U/L. The “Gamma Glutamyl Transferase Observed Value, Median” value (Week 20) was 47.5 U/L, the “ALT >10% decrease from Baseline, % of subjects” value (Week 24) was “(63.2%)” and the “ALT >10% decrease from Baseline, n subjects” value (Week 24) was 24. The “ALT >10% increase from Baseline, % of subjects” value (Week 24) was “(10.5%)”, the “ALT >10% increase from Baseline, n subjects” value (Week 24) was 4 and the “ALT Within 10% of Baseline, % of subjects” value (Week 24) was “(26.3%)”. For the same compound, the “ALT Within 10% of Baseline, n subjects” value (Week 24) was 10, the “AST >10% decrease from Baseline, % of subjects” value (Week 24) was “(63.2%)” and the “AST >10% decrease from Baseline, n subjects” value (Week 24) was 24. The “AST >10% increase from Baseline, % of subjects” value (Week 24) was “(15.8%)”, the “AST >10% increase from Baseline, n subjects” value (Week 24) was 6 and the “AST Within 10% of Baseline, % of subjects” value (Week 24) was “(21.1%)”. The “AST Within 10% of Baseline, n subjects” value (Week 24) was 8, the “Albumin >10% decrease from Baseline, % of subjects” value (Week 24) was “(5.3%)” and the “Albumin >10% decrease from Baseline, n subjects” value (Week 24) was 2. The “Albumin >10% increase from Baseline, n subjects” value (Week 24) was 0, the “Albumin Within 10% of Baseline, % of subjects” value (Week 24) was “(94.7%)” and the “Albumin Within 10% of Baseline, n subjects” value (Week 24) was 36. The “Alkaline Phosphatase >10% decrease from Baseline, % of subjects” value (Week 24) was “(60.5%)”, the “Alkaline Phosphatase >10% decrease from Baseline, n subjects” value (Week 24) was 23 and the “Alkaline Phosphatase >10% increase from Baseline, % of subjects” value (Week 24) was “(15.8%)”. The “Alkaline Phosphatase >10% increase from Baseline, n subjects” value (Week 24) was 6, the “Alkaline Phosphatase Within 10% of Baseline, % of subjects” value (Week 24) was “(23.7%)” and the “Alkaline Phosphatase Within 10% of Baseline, n subjects” value (Week 24) was 9. The “Bilirubin >10% decrease from Baseline, % of subjects” value (Week 24) was “(68.4%)”, the “Bilirubin >10% decrease from Baseline, n subjects” value (Week 24) was 26 and the “Bilirubin >10% increase from Baseline, % of subjects” value (Week 24) was “(15.8%)”. For the same compound, the “Bilirubin >10% increase from Baseline, n subjects” value (Week 24) was 6, the “Bilirubin Within 10% of Baseline, % of subjects” value (Week 24) was “(15.8%)” and the “Bilirubin Within 10% of Baseline, n subjects” value (Week 24) was 6. For the same compound, the “ALKALINE PHOSPHATASE Change from Baseline, Median” value (Week 24) was −24.5 U/L, the “ALT Change from Baseline, Mean” value (Week 24) was −13.5 U/L and the “ALT Change from Baseline, Median” value (Week 24) was −7.5 U/L. The “ALT Observed Value, Mean” value (Week 24) was 28.5 U/L, the “ALT Observed Value, Median” value (Week 24) was 23.5 U/L and the “AST Change from Baseline, Mean” value (Week 24) was −5.8 U/L. The “AST Change from Baseline, Median” value (Week 24) was −5 U/L, the “AST Observed Value, Mean” value (Week 24) was 25.8 U/L and the “AST Observed Value, Median” value (Week 24) was 23 U/L. For the same compound, the “Albumin Change from Baseline, Mean” value (Week 24) was -0.4 g/L, the “Albumin Change from Baseline, Median” value (Week 24) was 0 g/L and the “Albumin Observed Value, Mean” value (Week 24) was 41.9 g/L. For the same compound, the “Albumin Observed Value, Median” value (Week 24) was 42 g/L, the “Alkaline Phosphatase Change from Baseline, Mean” value (Week 24) was −29.2 U/L and the “Alkaline Phosphatase Observed Value, Mean” value (Week 24) was 106.2 U/L. For the same compound, the “Alkaline Phosphatase Observed Value, Median” value (Week 24) was 88 U/L, the “Bilirubin Change from Baseline, Mean” value (Week 24) was -3.68 µmol/L and the “Bilirubin Change from Baseline, Median” value (Week 24) was -2.35 µmol/L. The “Bilirubin Observed Value, Mean” value (Week 24) was 8.64 µmol/L, the “Bilirubin Observed Value, Median” value (Week 24) was 6.8 µmol/L and the “Gamma Glutamyl Transferase Change from Baseline, Mean” value (Week 24) was −13.6 U/L. For the same compound, the “Gamma Glutamyl Transferase Change from Baseline, Median” value (Week 24) was −6 U/L, the “Gamma Glutamyl Transferase Observed Value, Mean” value (Week 24) was 60.4 U/L and the “Gamma Glutamyl Transferase Observed Value, Median” value (Week 24) was 40.5 U/L.

— patent US20130072430A1, “METHODS FOR TREATMENT OR PROPHYLAXIS OF KIDNEY OR LIVER DYSFUNCTION” (NPS PHARMACEUTICALS, INC., priority 2010, published 2013)
